This note sets out measurements from ChEMBL document CHEMBL4130636, “Contilisant, a Tetratarget Small Molecule for Alzheimer's Disease Therapy Combining Cholinesterase, Monoamine Oxidase Inhibition, and H3R Antagonism with S1R Agonism Profile” (J Med Chem, 2018).

By Ki is commonly meant the equilibrium dissociation constant of an inhibitor or competing ligand from its target. A word on the IC50: it is the point on the concentration scale where inhibition reaches its midpoint.

SMILES strings stand for the structures. The source made the active and inactive calls. The rule behind the calls is not given here.

Data set [1] addresses T1, Sigma intracellular receptor 2 (Rattus norvegicus, UniProt Q5U3Y7).
T1 sequence (Q5U3Y7 whole entry): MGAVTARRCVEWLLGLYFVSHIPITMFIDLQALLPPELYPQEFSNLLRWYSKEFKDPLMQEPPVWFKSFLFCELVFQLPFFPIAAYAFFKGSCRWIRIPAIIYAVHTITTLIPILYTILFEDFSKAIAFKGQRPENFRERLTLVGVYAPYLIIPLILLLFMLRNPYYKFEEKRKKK
Put plainly: Displacement of [3H]DTG from sigma2 receptor in rat liver membranes after 60 mins by liquid scintillation counting method. The data set is classed as cell membranes, Membrane. On the technique in general: Loss of bound radioactivity is the signal in a displacement assay; it reports binding, not function.

For data set [2], the target named is T2, Vesicular acetylcholine transporter (Rattus norvegicus, UniProt Q62666).
T2 sequence (Q62666 whole entry): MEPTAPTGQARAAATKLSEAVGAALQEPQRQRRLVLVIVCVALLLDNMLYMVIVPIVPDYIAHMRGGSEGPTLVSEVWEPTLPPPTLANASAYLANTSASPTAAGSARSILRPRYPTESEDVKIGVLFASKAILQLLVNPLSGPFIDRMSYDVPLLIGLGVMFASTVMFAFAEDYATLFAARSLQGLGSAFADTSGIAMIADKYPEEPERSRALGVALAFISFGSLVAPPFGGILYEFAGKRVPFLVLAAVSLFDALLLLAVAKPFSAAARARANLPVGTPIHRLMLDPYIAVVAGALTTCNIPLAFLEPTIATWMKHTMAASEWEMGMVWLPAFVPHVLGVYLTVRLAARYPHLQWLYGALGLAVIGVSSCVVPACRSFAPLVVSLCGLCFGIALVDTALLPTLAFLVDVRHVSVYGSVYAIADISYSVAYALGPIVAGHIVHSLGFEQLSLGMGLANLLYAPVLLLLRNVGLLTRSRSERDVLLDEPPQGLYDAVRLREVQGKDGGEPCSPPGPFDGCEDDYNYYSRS
Put plainly: Displacement of (-)-[3H]vesamicol from rat VAChT expressed in rat PC12 cell membranes after 60 mins by liquid scintillation counting method.

In data set [3] the target is Sigma non-opioid intracellular receptor 1 (Homo sapiens, UniProt Q99720). Briefly: Displacement of (+)-[3H]pentazocine from human sigma1 receptor expressed in HEK293 cell membranes after 60 mins by liquid scintillation counting method.
Sequence of Sigma non-opioid intracellular receptor 1 (Q99720 whole entry): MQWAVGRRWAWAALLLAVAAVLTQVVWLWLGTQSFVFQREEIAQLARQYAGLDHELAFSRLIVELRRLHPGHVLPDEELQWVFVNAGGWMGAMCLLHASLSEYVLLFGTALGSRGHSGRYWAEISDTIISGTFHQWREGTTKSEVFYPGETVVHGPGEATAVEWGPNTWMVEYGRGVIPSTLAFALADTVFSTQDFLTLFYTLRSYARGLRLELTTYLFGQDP
Data set [4] relates to Mus musculus. Put plainly: In vivo antagonist activity at sigma1 receptor in sc dosed capsaicin-induced mechanical allodynia CD-1 mouse model assessed as increase in paw withdrawal latency pretreated for 30 mins followed by capsaicin treatment measured after 2 hrs. The format is functional, organism-based.
Data set [5] has as its system Mus musculus. Put plainly: Cognitive enhancing effect in amyloid beta (1 to 42)-induced dementia Balb/c mouse model assessed as protection against spatial memory impairment by measuring latency to find food on fourth day of test at 1 to 10 mg/kg, po qd via gavage for 17 days starting from 24 hrs post amyloid beta (1 to 42) oligomer treatment measured on day 14 by radial arm-maze test. The format is functional, organism-based.

Data set [6] has as its system Mus musculus. Put plainly: Cognitive enhancing effect in Balb/c mouse assessed as protection against amyloid beta (1 to 42) oligomers-induced memory damage at 1 to 10 mg/kg, po qd via gavage for 17 days starting from 24 hrs post amyloid beta (1 to 42) oligomer treatment measured on day 14 by Y-maze test. The format is functional, organism-based.
The nature of data set [7]: Selectivity ratio of Ki for sigma2 receptor in rat liver membranes to Ki for human sigma1 receptor expressed in HEK293 cell membranes. The data set is classed as cell-based.
Data set [8] has as its system Mus musculus. Put plainly: Cognitive enhancing effect in amyloid beta (1 to 42)-induced dementia Balb/c mouse model assessed as protection against spatial memory impairment by measuring reduction in total errors to find food on third and fourth days of test at 1 to 10 mg/kg, po qd via gavage for 17 days starting from 24 hrs post amyloid beta (1 to 42) oligomer treatment measured on day 14 by radial arm-maze test. The data set is classed as functional, organism-based.

Data set [9] has as its target Acetylcholinesterase (Homo sapiens, UniProt P22303). Briefly: Inhibition of recombinant human AChE using acetylthiocholine iodide as substrate by Ellman's method. For orientation: Ellman's reagent forms a yellow product with free thiols.
The target in data set [10] is Histamine H3 receptor (Homo sapiens, UniProt Q9Y5N1). Briefly: Displacement of [3H]-N-alpha-methylhistamine from human H3R expressed in HEK293 cell membranes after 90 mins by liquid scintillation counting method.
Sequence of Histamine H3 receptor (Q9Y5N1 whole entry): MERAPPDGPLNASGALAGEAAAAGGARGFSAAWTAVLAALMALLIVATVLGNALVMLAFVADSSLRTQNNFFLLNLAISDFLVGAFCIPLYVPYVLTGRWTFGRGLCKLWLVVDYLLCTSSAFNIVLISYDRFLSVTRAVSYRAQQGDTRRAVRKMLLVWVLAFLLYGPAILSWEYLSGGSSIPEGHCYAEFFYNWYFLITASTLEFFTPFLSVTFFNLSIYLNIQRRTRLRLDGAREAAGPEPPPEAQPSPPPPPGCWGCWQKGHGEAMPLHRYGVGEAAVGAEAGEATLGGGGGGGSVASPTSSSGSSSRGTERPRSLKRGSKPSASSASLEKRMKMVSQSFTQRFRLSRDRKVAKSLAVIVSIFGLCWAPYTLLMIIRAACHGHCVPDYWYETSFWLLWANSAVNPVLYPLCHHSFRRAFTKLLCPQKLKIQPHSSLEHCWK
Data set [11] has as its system Mus musculus. Put plainly: Induction of memory damage in Balb/c mouse at 1 to 10 mg/kg, po qd via gavage for 17 measured on day 14 by Y-maze test. The data set is classed as organism-based. The conditions noted are these: in vivo.
The target in data set [12] is Cholinesterase (Homo sapiens, UniProt P06276). Briefly: Inhibition of human plasma BuChE using acetylthiocholine iodide as substrate by Ellman's method.
Sequence of Cholinesterase (P06276 whole entry): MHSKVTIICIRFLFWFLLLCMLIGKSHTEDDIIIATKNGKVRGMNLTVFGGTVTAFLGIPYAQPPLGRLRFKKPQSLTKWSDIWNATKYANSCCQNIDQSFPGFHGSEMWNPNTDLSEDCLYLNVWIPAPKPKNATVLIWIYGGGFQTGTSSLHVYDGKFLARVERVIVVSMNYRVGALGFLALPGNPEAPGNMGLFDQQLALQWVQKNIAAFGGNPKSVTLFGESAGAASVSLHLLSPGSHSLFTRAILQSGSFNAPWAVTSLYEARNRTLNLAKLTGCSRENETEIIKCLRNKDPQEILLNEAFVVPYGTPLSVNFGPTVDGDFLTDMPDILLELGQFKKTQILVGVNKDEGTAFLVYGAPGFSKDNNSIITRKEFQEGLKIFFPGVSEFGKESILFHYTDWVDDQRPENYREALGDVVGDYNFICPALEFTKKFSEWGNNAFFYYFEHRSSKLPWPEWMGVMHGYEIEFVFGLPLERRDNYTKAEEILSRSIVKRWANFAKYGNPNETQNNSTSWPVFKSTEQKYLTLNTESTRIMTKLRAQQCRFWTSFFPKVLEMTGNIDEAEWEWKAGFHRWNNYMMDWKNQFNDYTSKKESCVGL
The subject of data set [13] is Mus musculus. Briefly: In vivo agonist activity at sigma1 receptor in sc dosed capsaicin-induced mechanical allodynia CD-1 mouse model assessed as decrease in paw withdrawal latency pretreated for 30 mins followed by capsaicin treatment measured after 2 hrs. The data set is classed as functional, organism-based.
Data set [14] relates to Mus musculus. Briefly: Cognitive enhancing effect in amyloid beta (1 to 42)-induced dementia Balb/c mouse model assessed as protection against spatial memory impairment by measuring reduction in total errors to find food on second, third and fourth days of test at 1 to 10 mg/kg, po qd via gavage for 17 days starting from 24 hrs post amyloid beta (1 to 42) oligomer treatment measured on day 14 by radial arm-maze test. The data set is classed as functional, organism-based.

Data set [15] has as its system Mus musculus. Put plainly: Cognitive enhancing effect in amyloid beta (1 to 42)-induced dementia Balb/c mouse model assessed as protection against spatial memory impairment by measuring latency to find food on second, third and fourth days of test at 1 to 10 mg/kg, po qd via gavage for 17 days starting from 24 hrs post amyloid beta (1 to 42) oligomer treatment measured on day 14 by radial arm-maze test. The data set is classed as functional, organism-based.

Data set [16] relates to Mus musculus. Briefly: Cognitive enhancing effect in amyloid beta (1 to 42)-induced dementia Balb/c mouse model assessed as protection against spatial memory impairment by measuring reduction in total errors to find food on third and fourth days of test at 10 mg/kg, po qd via gavage for 17 days starting from 24 hrs post amyloid beta (1 to 42) oligomer treatment measured on day 14 by radial arm-maze test. The data set is classed as functional, organism-based.

Data set [17] concerns Mus musculus. Put plainly: Cognitive enhancing effect in amyloid beta (1 to 42)-induced dementia Balb/c mouse model assessed as protection against spatial memory impairment by measuring latency to find food on third and fourth days of test at 10 mg/kg, po qd via gavage for 17 days starting from 24 hrs post amyloid beta (1 to 42) oligomer treatment measured on day 14 by radial arm-maze test. The data set is classed as functional, organism-based.

In data set [18] the test system is Mus musculus. Briefly: Cognitive enhancing effect in Balb/c mouse assessed as protection against amyloid beta (1 to 42) oligomers-induced memory damage at 10 mg/kg, po qd via gavage for 17 days starting from 24 hrs post amyloid beta (1 to 42) oligomer treatment measured on day 14 by Y-maze test. The format is functional, organism-based.

Sequence of Acetylcholinesterase (P22303 whole entry): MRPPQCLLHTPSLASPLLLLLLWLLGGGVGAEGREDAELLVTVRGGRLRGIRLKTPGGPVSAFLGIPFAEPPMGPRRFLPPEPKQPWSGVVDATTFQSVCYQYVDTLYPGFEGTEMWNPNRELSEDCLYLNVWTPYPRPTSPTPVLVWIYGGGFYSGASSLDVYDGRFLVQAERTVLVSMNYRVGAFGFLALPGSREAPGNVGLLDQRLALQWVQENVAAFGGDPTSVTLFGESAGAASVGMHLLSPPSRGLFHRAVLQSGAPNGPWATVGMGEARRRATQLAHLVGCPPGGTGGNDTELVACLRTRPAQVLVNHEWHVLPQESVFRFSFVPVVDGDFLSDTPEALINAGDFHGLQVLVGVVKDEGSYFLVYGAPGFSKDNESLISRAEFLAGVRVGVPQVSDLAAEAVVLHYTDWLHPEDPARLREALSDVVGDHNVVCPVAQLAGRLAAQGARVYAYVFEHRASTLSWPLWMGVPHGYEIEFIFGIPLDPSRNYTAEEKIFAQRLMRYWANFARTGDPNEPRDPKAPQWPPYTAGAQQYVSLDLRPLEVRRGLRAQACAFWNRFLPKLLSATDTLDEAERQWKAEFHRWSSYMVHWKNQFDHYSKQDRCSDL

For `COc1ccc(CCN2CCN(CCCc3ccccc3)CC2)cc1OC` [[11C]SA4503], the Ki in data set [1] was 0.0622 µM; in data set [2], 0.492 µM.
For the compound `C#CCN(C)Cc1cc2cc(OCCCC3CCN(Cc4ccccc4)CC3)ccc2n1C`, the figures for the Ki in [3], in data set [1] and in data set [2] were 0.00283 µM, 0.0503 µM and 0.00258 µM, respectively. Besides, the inhibition entry in data set [4] is “Dose-dependent effect”. The outcome in data set [5], in data set [6] and in [8] was Active. For the same compound, in [7], the Ratio Ki is 18.
The compound `OC1CCCCC1N1CCC(c2ccccc2)CC1` (racemic) registered a Ki in data set [1] of 0.0634 µM.
Regarding `C#CCN(C)Cc1cc2cc(OCCCN3CCCCC3)ccc2n1C`, the Ki in data set [3] came to 0.0652 µM; in data set [10], 0.0108 µM; in [1], 0.326 µM; in data set [2], 0.0463 µM. Moreover, the values for the IC50 in data set [9] and in data set [12] were 0.53 µM and 1.69 µM, respectively. Also, the Activity entry in data set [11] is “Non-Toxic”; in [13], “Dose-dependent effect”. Further, the result in data set [14], in data set [15] and in [6] was Active.
On to `COc1cc2c(cc1OC)C(=O)C(CC1CCN(Cc3ccccc3)CC1)C2` (stereo not given), for which the result in data set [16], in data set [17] and in data set [18] was Active.
